The values that follow come from ChEMBL document CHEMBL1153920, “4,4-Difluorinated analogues of l-arginine and N(G)-hydroxy-l-arginine as mechanistic probes for nitric oxide synthase” (Bioorg Med Chem Lett, 2009).

The target of test [1] is T1, Nitric oxide synthase, inducible (Homo sapiens, UniProt P35228). In words: Binding affinity to iNOS with heme domain construct assessed as spectral binding constant by spectral assay.
For test [2], the target named is T1, Nitric oxide synthase, inducible. Put plainly: Activity of iNOS assessed as increase in Kcat by indirect spectral assay relative to N'G-hydroxy-L-arginine.

T1 sequence (P35228 whole entry, the tested form may be a part): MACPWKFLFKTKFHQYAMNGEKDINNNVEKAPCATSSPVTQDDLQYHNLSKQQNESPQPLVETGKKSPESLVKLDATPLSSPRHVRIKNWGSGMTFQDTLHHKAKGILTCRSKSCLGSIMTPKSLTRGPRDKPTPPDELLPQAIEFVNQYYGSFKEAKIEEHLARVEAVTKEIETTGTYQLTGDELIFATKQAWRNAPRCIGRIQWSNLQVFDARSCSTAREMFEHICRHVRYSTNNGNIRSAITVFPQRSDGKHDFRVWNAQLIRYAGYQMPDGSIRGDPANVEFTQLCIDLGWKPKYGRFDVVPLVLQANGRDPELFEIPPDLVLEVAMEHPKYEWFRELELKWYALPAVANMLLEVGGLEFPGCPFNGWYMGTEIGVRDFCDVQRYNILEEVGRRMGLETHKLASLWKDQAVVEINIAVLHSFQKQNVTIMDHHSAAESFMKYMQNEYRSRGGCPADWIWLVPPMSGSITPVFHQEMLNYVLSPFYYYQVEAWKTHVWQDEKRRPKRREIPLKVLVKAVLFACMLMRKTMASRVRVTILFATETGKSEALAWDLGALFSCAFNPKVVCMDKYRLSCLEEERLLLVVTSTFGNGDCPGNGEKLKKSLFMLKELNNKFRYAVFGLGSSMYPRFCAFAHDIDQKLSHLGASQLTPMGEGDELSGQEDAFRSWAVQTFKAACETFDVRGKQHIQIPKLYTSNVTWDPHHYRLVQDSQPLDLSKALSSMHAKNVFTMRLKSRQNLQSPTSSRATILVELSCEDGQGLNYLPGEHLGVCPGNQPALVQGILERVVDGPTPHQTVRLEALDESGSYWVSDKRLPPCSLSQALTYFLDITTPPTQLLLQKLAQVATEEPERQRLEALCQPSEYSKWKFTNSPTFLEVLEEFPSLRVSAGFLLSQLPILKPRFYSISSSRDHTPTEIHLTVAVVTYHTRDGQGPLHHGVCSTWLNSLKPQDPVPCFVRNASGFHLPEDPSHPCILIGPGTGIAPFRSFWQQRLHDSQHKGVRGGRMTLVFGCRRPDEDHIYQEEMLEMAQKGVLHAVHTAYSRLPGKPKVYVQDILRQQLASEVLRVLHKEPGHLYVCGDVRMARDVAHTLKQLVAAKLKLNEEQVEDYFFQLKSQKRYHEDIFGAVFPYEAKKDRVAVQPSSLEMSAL

As for `N=C(N)NCC(F)(F)C[C@H](N)C(=O)O`, the Kd in test [1] worked out at 3100 µM. Further, the Activity in test [2] is 10%.
Turning to `N=C(NO)NCCC[C@H](N)C(=O)O`, the Kd in test [1] was 5.1 µM.
With `N/C(=N\O)NCC(F)(F)C[C@H](N)C(=O)O`, the Kd in test [1] worked out at 116 µM. Also, in test [2], the Activity is 30%.

What is called Kd is the concentration at which binding is half-saturated.
